Results as given in patent publication US4487937A, “2-(2-Substitutedamino-4-thiazolyl)-2-(1-methoxy-isopropoxyimino)-acetic acids” (Roussel Uclaf, priority 1977, dated 1984).
Converted amounts (≈) assume the structure as drawn. Read-outs that look alike come from different tables or passages of the source.

Legend:
Assay in all cases: In vitro MIC, dilution of a liquid medium
Type in all cases: cell-based
[1] = tested on: Escherichia Coli Sensitive Tetracycline ATCC 9 637; details: read-out: minimum inhibiting concentration (MIC)
Description: (§1) The method used was a dilution of a liquid medium where a series of tubes received the same quantity of a sterile nutritive media and increasing doses of the test compounds were placed therein. Then each tube was seeded with a bacterial strain and was incubated for 24 or 48 hours at 37° C. in an oven. The increasing inhibition was determined by transillumination to determine the minimum inhibiting concentration (MIC in μg/ml) and the results are reported in the following Tables.

[2] = tested on: Staphylococcus aureus UC 1 128 Penicillin-resistant; details: 37° C., read-out: minimum inhibiting concentration (MIC)
Description: as §1

[3] = tested on: Proteus vulgaris (indol +) A 232; details: read-out: minimum inhibiting concentration (MIC)
Description: as §1

[4] = tested on: Streptococcus faecalis 5 432; details: Enterococcus faecalis, 5432, 37° C., read-out: minimum inhibiting concentration (MIC)
Description: as §1

[5] = tested on: Escherichia Coli Exp. TO26 B6; details: 37° C., read-out: minimum inhibiting concentration (MIC)
Description: as §1

[6] = tested on: Klebsiella pneumoniae 2 536 Resistant Gentamicine; details: read-out: minimum inhibiting concentration (MIC)
Description: as §1

[7] = tested on: Escherichia Coli Resistant Tetracycline ATCC 11 303; details: read-out: minimum inhibiting concentration (MIC)
Description: as §1

[8] = tested on: Serratia Resistant Gentamicine 2 532; details: 37° C., read-out: minimum inhibiting concentration (MIC)
Description: as §1

[9] = tested on: Staphylococcus aureus exp. n° 54 146; details: 37° C., read-out: minimum inhibiting concentration (MIC)
Description: as §1

[10] = tested on: Staphylococcus aureus ATCC 6 538 Penicillin-Sensitive; details: 37° C., read-out: minimum inhibiting concentration (MIC)
Description: as §1

Enterobacter cloacae 681 = details: 37° C., read-out: minimum inhibiting concentration (MIC)
Description: as §1

[11] = tested on: Klebsiella pneumoniae Exp. 52 145; details: read-out: minimum inhibiting concentration (MIC)
Description: as §1

[12] = tested on: Streptococcus pyogenes A 561; details: read-out: minimum inhibiting concentration (MIC)
Description: as §1

[13] = tested on: Escherichia Coli Resistant Gentamicine, Tobramycine R 55 123 D; details: read-out: minimum inhibiting concentration (MIC)
Description: as §1

[14] = tested on: Bacillus subtilis ATCC 6 633; details: 37° C., read-out: minimum inhibiting concentration (MIC)
Description: as §1

[15] = tested on: Proteus mirabilis (indol -) A 235; details: 37° C., read-out: minimum inhibiting concentration (MIC)
Description: as §1

[16] = tested on: Streptococcus faecalis 99 F 74; details: Enterococcus faecalis, 99F74, 37° C., read-out: minimum inhibiting concentration (MIC)
Description: as §1

Providencia Du 48 = details: 37° C., read-out: minimum inhibiting concentration (MIC)
Description: as §1

[17] = tested on: Salmonella typhimurium 420; details: Salmonella enterica, read-out: minimum inhibiting concentration (MIC)
Description: as §1

CCOC(=O)CO/N=C(\C(=O)NC1C(=O)N2C(C(=O)O)=C(COC(C)=O)CS[C@H]12)c1csc(N)n1 (some centres unmarked) [Example 2, 7-[2-(2-amino-4-thiazolyl)-2-carbethoxymethyloxyimino-acetamido]-3-acetoxymethyl-ceph-3-eme-4-carboxylic acid]
MIC ([1]; ATCC9, 24 H, 37° C.): 2 µg/mL (≈ 3.79 µM) | MIC ([1]; ATCC9, 48 H, 37° C.): 2 µg/mL (≈ 3.79 µM) | MIC ([2]; UC1, 24 H): 3 µg/mL (≈ 5.69 µM) | MIC ([2]; UC1, 48 H): 3 µg/mL (≈ 5.69 µM) | MIC ([3]; 24 h): 1 µg/mL (≈ 1.9 µM) | MIC ([3]; 48 h): 1 µg/mL (≈ 1.9 µM) | MIC ([4]; 24 H): 5 µg/mL (≈ 9.48 µM) | MIC ([4]; 48 H): > 40 µg/mL | MIC ([5]; 24 H): 1 µg/mL (≈ 1.9 µM) | MIC ([5]; 48 H): 1 µg/mL (≈ 1.9 µM) | MIC ([6]; 24 H, 37° C.): 2 µg/mL (≈ 3.79 µM) | MIC ([6]; 48 H, 37° C.): 2 µg/mL (≈ 3.79 µM) | MIC ([7]; ATCC11, 24 H, 37° C.): 0.5 µg/mL (≈ 0.948 µM) | MIC ([7]; ATCC11, 48 h): 1 µg/mL (≈ 1.9 µM) | MIC ([8]; 24 H): 5 µg/mL (≈ 9.48 µM) | MIC ([8]; 48 H): 5 µg/mL (≈ 9.48 µM) | MIC ([9]; 24 H): 3 µg/mL (≈ 5.69 µM) | MIC ([9]; 48 H): 5 µg/mL (≈ 9.48 µM) | MIC ([10]; ATCC6, 24 H): 3 µg/mL (≈ 5.69 µM) | MIC ([10]; ATCC6, 48 H): 5 µg/mL (≈ 9.48 µM) | MIC (Enterobacter cloacae 681; 24 H): 10 µg/mL (≈ 19 µM) | MIC (Enterobacter cloacae 681; 48 H): 10 µg/mL (≈ 19 µM) | MIC ([11]; EXP.52145, 48 H, 37° C.): 0.2 µg/mL (≈ 0.379 µM) | MIC ([11]; EXP.52145, 24 h): 0.1 µg/mL (≈ 0.19 µM) | MIC ([12]; A561, 24 H, 37° C.): 0.05 µg/mL (≈ 0.0948 µM) | MIC ([12]; A561, 48 h): 0.1 µg/mL (≈ 0.19 µM) | MIC ([13]; 24 h): 1 µg/mL (≈ 1.9 µM) | MIC ([13]; 48 h): 1 µg/mL (≈ 1.9 µM) | MIC ([14]; ATCC6, 24 H): 0.5 µg/mL (≈ 0.948 µM) | MIC ([14]; ATCC6, 48 H): 5 µg/mL (≈ 9.48 µM) | MIC ([15]; 24 H): 0.2 µg/mL (≈ 0.379 µM) | MIC ([15]; 48 H): 0.2 µg/mL (≈ 0.379 µM) | MIC ([16]; 24 H): > 40 µg/mL | MIC ([16]; 48 H): > 40 µg/mL | MIC (Providencia Du 48; DU48, 24 H): 5 µg/mL (≈ 9.48 µM) | MIC (Providencia Du 48; DU48, 48 H): 5 µg/mL (≈ 9.48 µM) | MIC ([17]; 48 H, 37° C.): 2 µg/mL (≈ 3.79 µM) | MIC ([17]; 24 h): 1 µg/mL (≈ 1.9 µM)

CC(=O)OCC1=C(C(=O)O)N2C(=O)C(NC(=O)/C(=N\OCC(=O)O)c3csc(N)n3)[C@H]2SC1 (some centres unmarked) [Example 5, disodium 7-[2-(2-amino-4-thiazolyl)-2-hydroxycarbonylmethoxyimino-acetamido]-3-acetoxymethyl-ceph-3-eme-4-carboxylate]
MIC ([1]; ATCC9, 24 h): 0.2 µg/mL | MIC ([1]; ATCC9, 48 h): 0.2 µg/mL | MIC ([2]; UC1, 24 H): 20 µg/mL | MIC ([2]; UC1, 48 H): 20 µg/mL | MIC ([3]; 24 h): 0.1 µg/mL | MIC ([3]; 48 h): 0.1 µg/mL | MIC ([4]; 24 H): 20 µg/mL | MIC ([4]; 48 H): > 40 µg/mL | MIC ([5]; 24 H): 0.1 µg/mL | MIC ([5]; 48 H): 0.1 µg/mL | MIC ([6]; 24 h): 0.1 µg/mL | MIC ([6]; 48 h): 0.1 µg/mL | MIC ([7]; ATCC11, 24 H, 37° C.): 0.05 µg/mL | MIC ([7]; ATCC11, 48 H, 37° C.): 0.05 µg/mL | MIC ([8]; 24 H): 1 µg/mL | MIC ([8]; 48 H): 2 µg/mL | MIC ([9]; 24 H): 20 µg/mL | MIC ([9]; 48 H): 20 µg/mL | MIC ([10]; ATCC6, 24 H): 10 µg/mL | MIC ([10]; ATCC6, 48 H): 10 µg/mL | MIC (Enterobacter cloacae 681; 24 H): 5 µg/mL | MIC (Enterobacter cloacae 681; 48 H): 20 µg/mL | MIC ([11]; EXP.52145, 24 h): 0.1 µg/mL | MIC ([11]; EXP.52145, 48 h): 0.1 µg/mL | MIC ([12]; A561, 24 H, 37° C.): 0.5 µg/mL | MIC ([12]; A561, 48 H, 37° C.): 0.5 µg/mL | MIC ([13]; 24 h): 0.1 µg/mL | MIC ([13]; 48 h): 0.1 µg/mL | MIC ([15]; 24 H): ≤ 0.02 µg/mL | MIC ([15]; 48 H): ≤ 0.02 µg/mL | MIC ([16]; 24 H): > 40 µg/mL | MIC ([16]; 48 H): > 40 µg/mL | MIC (Providencia Du 48; DU48, 24 H): 1 µg/mL | MIC (Providencia Du 48; DU48, 48 H): 2 µg/mL | MIC ([17]; 48 H, 37° C.): 0.5 µg/mL | MIC ([17]; 24 h): 0.2 µg/mL
